Measured values: PubChem BioAssay (NCI)
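In this assay, cells in 96-well plates receive the compound at five concentrations for 48 hours. Endpoints are linearly interpolated between the surrounding concentrations. TGI marks complete inhibition of growth.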

How the values were obtained:
Assay in all cases: NCI-60 cell line screen, 48 h
786-0 renal = test system: 786-0 renal
A498 renal = test system: A498 renal
A549 NSCLC = test system: A549 NSCLC
ACHN renal = test system: ACHN renal
BT-549 breast = test system: BT-549 breast
CAKI-1 renal = test system: CAKI-1 renal
CCRF-CEM leukemia = test system: CCRF-CEM leukemia
COLO 205 colon = test system: COLO 205 colon
DU-145 prostate = test system: DU-145 prostate
EKVX NSCLC = test system: EKVX NSCLC
HCC-2998 colon = test system: HCC-2998 colon
HCT-116 colon = test system: HCT-116 colon
HCT-15 colon = test system: HCT-15 colon
HL-60(TB) leukemia = test system: HL-60(TB) leukemia
HOP-92 NSCLC = test system: HOP-92 NSCLC
HS 578T breast = test system: HS 578T breast
HT29 colon = test system: HT29 colon
IGROV1 ovarian = test system: IGROV1 ovarian
K-562 leukemia = test system: K-562 leukemia
KM12 colon = test system: KM12 colon
LOX IMVI melanoma = test system: LOX IMVI melanoma
M14 melanoma = test system: M14 melanoma
MALME-3M melanoma = test system: MALME-3M melanoma
MCF7 breast = test system: MCF7 breast
MDA-MB-231 breast = test system: MDA-MB-231 breast
MDA-MB-435 = test system: MDA-MB-435
MDA-N = test system: MDA-N
MOLT-4 leukemia = test system: MOLT-4 leukemia
NCI-H226 lung = test system: NCI-H226 lung
NCI-H23 lung = test system: NCI-H23 lung
NCI-H460 lung = test system: NCI-H460 lung
NCI-H522 lung = test system: NCI-H522 lung
NCI/ADR-RES ovarian = test system: NCI/ADR-RES ovarian
OVCAR-3 ovarian = test system: OVCAR-3 ovarian
OVCAR-4 ovarian = test system: OVCAR-4 ovarian
OVCAR-5 ovarian = test system: OVCAR-5 ovarian
OVCAR-8 ovarian = test system: OVCAR-8 ovarian
PC-3 prostate = test system: PC-3 prostate
RPMI-8226 leukemia = test system: RPMI-8226 leukemia
SF-268 CNS = test system: SF-268 CNS
SF-295 CNS = test system: SF-295 CNS
SF-539 CNS = test system: SF-539 CNS
SK-MEL-2 melanoma = test system: SK-MEL-2 melanoma
SK-MEL-28 melanoma = test system: SK-MEL-28 melanoma
SK-MEL-5 melanoma = test system: SK-MEL-5 melanoma
SK-OV-3 ovarian = test system: SK-OV-3 ovarian
SN12C renal = test system: SN12C renal
SNB-19 CNS = test system: SNB-19 CNS
SNB-75 CNS = test system: SNB-75 CNS
SW-620 colon = test system: SW-620 colon
T-47D breast = test system: T-47D breast
TK-10 renal = test system: TK-10 renal
U251 CNS = test system: U251 CNS
UACC-257 melanoma = test system: UACC-257 melanoma
UACC-62 melanoma = test system: UACC-62 melanoma
UO-31 renal = test system: UO-31 renal
HOP-62 NSCLC = test system: HOP-62 NSCLC
RXF 393 renal = test system: RXF 393 renal

Measured: TGI

OCc1cc2c([nH]c3ccccc32)c(C(O)CO)n1 (centres undefined)
not listed: HOP-62 NSCLC | RXF 393 renal
> 100 µM: all other assays above

COc1ccc(Cc2c(N)[nH]c(=O)[nH]c2=O)cc1
not listed: CCRF-CEM leukemia | DU-145 prostate | HL-60(TB) leukemia | MCF7 breast | MOLT-4 leukemia
> 100 µM: all other assays above
